In patent US11479546B2, “Antimalarial hexahydropyrimidine analogues” (UCB Biopharma SRL, priority 2018, dated 2022):

Each compound was assayed on Plasmodium falciparum 3D7 (assay: P. falciparum 3D7 asexual blood stage assay, Assay Procedure Version 2 (SYBR green readout)). Settings: Plasmodium falciparum, 3D7, Erythrocyte, 72 h, Version 2 of the assay procedure (asterisk *); 72 h incubation in infected erythrocytes; 50,000 nM to 15 nM.
Format: cell-based
Method: Asexual Blood Stage Assay
The assay used to measure the effect of test compounds on a bloodstream stage of Plasmodium falciparum 3D7 strain employs SYBR green as the readout. This is a dye that binds to double stranded deoxyribonucleic acid (DNA) with a resulting increase in fluorescence, allowing detection of P. falciparum DNA in infected erythrocytes, and thereby providing a measure of parasite growth and propagation.
P. falciparum Culture Maintenance
Erythrocytes (A+blood) were prepared for both parasite culture and assay by washing 4 times with incomplete media (15.9 g RPMI 1640 (25 mM HEPES, L-glutamine), 1 g NaHCO3, 2 g glucose, 400 μL gentacin (500 mg/mL), 2 mL hypoxanthine solution (13.6 g/L in 0.1M NaOH pH 7.3) in 1 litre of media). The cells were centrifuged at 1800 g for 5 minutes, before decanting the supernatant and re-suspending in fresh incomplete media. On the final wash, the cells were re-suspended in complete media (incomplete media with 5 g/L AlbumaxII), and centrifuged at 1800 g for 3 minutes. This cell sediment was treated as 100% haematocrit.
P. falciparum 3D7 was cultured in erythrocytes at 5% haematocrit in complete media at 37° C. (1% O2, 3% CO2, balance N2). Cultures were split on a weekly basis to achieve a 1% parasitaemia in erythrocites at 5% haematocrit in fresh media. Culture media is replaced by fresh media every other day (2 times during the week).
[formula] where A=% inhibition at bottom; B=% inhibition at top; C=EC50; D=slope; x=inhibitor concentration; and y=% inhibition. […] Assay Procedure—Version 2
On day 1, test compounds were added to assay plates using Echo dispensing technology ([…] and 20 points titration). 50 nL of each compound dilution was added to 50 μL of culture (5% haematocrit, 0.5% parasitaemia) and incubated for 72 h at 37° C. (1% O2, 3% CO2, balance N2). Final concentrations of test compounds ranged from 50,000 nM to 15 nM, in […].
On day 4, 10 μL SYBR green (Invitrogen S7563 supplied as 10,000× concentrate in DMSO) pre-diluted to 3× concentrate with Lysis buffer (20 mM Tris pH 7.9, 5% EDTA, 0.16% w/v, 1.6% TX100 v/v) was added to the cultures and incubated in the dark, overnight, at room temperature.
On day 5, fluorescent signal was measured using a BioTek plate reader (excitation 485 nm, emission 528 nm). All data were processed using IDBS ActivityBase. Raw data were converted into percent inhibition through linear regression by setting the high inhibition control (mefloquine) as 100% and the no inhibition control (DMSO) as 0%. Quality control criteria for passing plates were as follows: Z′>0.5, S:B>3, % CV(no inhibition control)<15. The formula used to calculate Z′ is:
[formula] where μ denotes the mean; σ denotes the standard deviation; p denotes the positive control; and n denotes the negative control.
All EC50 curve fitting was undertaken using the following bi-phasic two site dose response using XLfit model 300 (IDBS):
[formula] where A=100 minus the top of the upper curve 1 and the bottom of lower curve; B=Hill slope; log(C)=IC50 concentration at lower site; log(D)=IC50 concentration at upper site; x=inhibitor concentration; and y=% inhibition.

Structure (SMILES) | IC50 [nM]
C[C@@]1(c2cccc(Nc3ccccc3S(C)(=O)=O)c2Cl)CC(=O)N(C2CCOCC2)C(=N)N1 [Example 43, (6S)-6-[2-Chloro-3-(2-methyl-sulfonylanilino)phenyl]-2-imino-6-methyl-3-(tetrahydro-pyran-4-yl)hexahydropyrimidin-4-one] | 63
C[C@@]1(c2cccc(Nc3ccn4nccc4c3)c2Cl)CC(=O)N([C@H]2C[C@@](C)(O)C2)C(=N)N1 [Example 132, (6S)-6-[2-Chloro-3-(pyrazolo-[1,5-a]pyridin-5-ylamino)-phenyl]-3-(3-hydroxy-3-methyl-cyclobutyl)-2-imino-6-methyl-hexahydropyrimidin-4-one] | 623
C[C@@]1(c2cccc(Nc3ccc(F)cc3S(C)(=O)=O)c2Cl)CC(=O)N(C2CCOCC2)C(=N)N1 [Example 104, (6S)-6-{2-Chloro-3-[4-fluoro-2-(methylsulfonyl)anilino]-phenyl}-2-imino-6-methyl-3-(tetrahydropyran-4-yl)-hexahydropyrimidin-4-one] | 131
C[C@@]1(c2cccc(Nc3ccc(OC(F)F)nc3)c2Cl)CC(=O)N([C@H]2C[C@@](C)(O)C2)C(=N)N1 [Example 128, (6S)-6-(2-Chloro-3-{[6-(difluoromethoxy)pyridin-3-yl]-amino}phenyl)-3-(3-hydroxy-3-methylcyclobutyl)-2-imino-6-methylhexahydropyrimidin-4-one] | 717
Cc1ccc(Nc2cccc([C@]3(C)CC(=O)N([C@@H]4C[C@H]5CC[C@@H](C4)O5)C(=N)N3)c2Cl)cn1 (mixture of isomers) [Example 157, (6S)-6-{2-Chloro-3-[(6-methyl-pyridin-3-yl)amino]phenyl}-2-imino-6-methyl-3-[(1SR,5RS)-8-oxabicyclo[3.2.1]octan-3-yl]-hexahydropyrimidin-4-one] | 3860
C[C@@H]1C[C@H](N2C(=N)N[C@](C)(c3cccc(Nc4ccc(OCC(F)F)nc4)c3Cl)CC2=O)CCO1 (relative stereo) [Example 203, (6S)-6-(2-Chloro-3-{[6-(2,2-difluoroethoxy)pyridin-3-yl]-amino}phenyl)-2-imino-6-methyl-3-[(2R*,4R*)-2-methyl-tetrahydropyran-4-yl]-hexahydropyrimidin-4-one] | 57
C[C@@H]1C[C@@H](N2C(=N)N[C@](C)(c3cccc(Nc4ccc(C5CC5)nc4)c3Cl)CC2=O)CCO1 (single isomer, unassigned; peak 1) [Example 193, (6S)-6-{2-Chloro-3-[(6-cyclo-propylpyridin-3-yl)amino]-phenyl}-2-imino-6-methyl-3-[(2R*,4S*)-2-methyltetrahydro-pyran-4-yl]hexahydropyrimidin-4-one (Peak 1)] | 148
C[C@@]1(c2cccc(Nc3ccc(OC(F)F)nc3)c2Cl)CC(=O)N(C2CCC(F)(F)CC2)C(=N)N1 [Example 140, (6S)-6-(2-Chloro-3-{[6-(difluoromethoxy)pyridin-3-yl]-amino}phenyl)-3-(4,4-difluoro-cyclohexyl)-2-imino-6-methyl-hexahydropyrimidin-4-one] | 704
CC1(C)CC(N2C(=N)N[C@](C)(c3cccc(Nc4ccc(C(C)(C)C)nc4)c3Cl)CC2=O)CCO1 (single isomer, unassigned) [Example 148, (6S)-6-{3-[(6-tert-Butylpyridin-3-yl)amino]-2-chlorophenyl}-3-[(4S*)-2,2-dimethyltetrahydro-pyran-4-yl]-2-imino-6-methyl-hexahydropyrimidin-4-one] | 368
Cc1cnc(Nc2cccc([C@]3(C)CC(=O)N([C@H]4C[C@@](C)(O)C4)C(=N)N3)c2Cl)cn1 [Example 129, (6S)-6-{2-Chloro-3-[(5-methyl-pyrazin-2-yl)amino]phenyl}-3-(3-hydroxy-3-methylcyclo-butyl)-2-imino-6-methyl-hexahydropyrimidin-4-one] | 1330
C[C@@]1(c2cccc(Nc3ccc(-n4cncn4)nc3)c2Cl)CC(=O)N(C2CCOCC2)C(=N)N1 [Example 114, (6S)-6-(2-Chloro-3-{[6-(1,2,4-triazol-1-yl)pyridin-3-yl]-amino}phenyl)-2-imino-6-methyl-3-(tetrahydropyran-4-yl)hexahydropyrimidin-4-one] | 519
C[C@@]1(c2cccc(Nc3ccc(OC(F)(F)F)nc3)c2Cl)CC(=O)N(C2CCOCC2)C(=N)N1 [Example 45, (6S)-6-(2-Chloro-3-{[6-(trifluoromethoxy)pyridin-3-yl]-amino}phenyl)-2-imino-6-methyl-3-(tetrahydropyran-4-yl)hexahydropyrimidin-4-one] | 305
C[C@@]1(c2cccc(Nc3ccc(Cl)cc3S(C)(=O)=O)c2Cl)CC(=O)N(C2CCOCC2)C(=N)N1 [Example 118, (6S)-6-{2-Chloro-3-[4-chloro-2-(methylsulfonyl)anilino]-phenyl}-2-imino-6-methyl-3-(tetrahydropyran-4-yl)-hexahydropyrimidin-4-one] | 138
C[C@@H]1C[C@H](N2C(=N)N[C@](C)(c3cccc(Nc4ccc(C5CC5)nc4)c3Cl)CC2=O)CCO1 (relative stereo) [Example 198, (6S)-6-{2-Chloro-3-[(6-cyclo-propylpyridin-3-yl)amino]-phenyl}-2-imino-6-methyl-3-[(2R*,4R*)-2-methyltetrahydro-pyran-4-yl]hexahydropyrimidin-4-one] | 22

Other lines, results leading:

IC50 [nM] | Structure (SMILES)
217 | C[C@@]1(c2cccc(Nc3ncccc3C#N)c2Cl)CC(=O)N(C2CCOCC2)C(=N)N1 [Example 184, 2-{2-Chloro-3-[(4S)-2-imino-4-methyl-6-oxo-1-(tetrahydro-pyran-4-yl)hexahydropyrimidin-4-yl]anilino}pyridine-3-carbo-nitrile]
478 | C[C@@]1(c2cccc(Nc3cc(F)c4ccnn4c3)c2Cl)CC(=O)N(C2CCOCC2)C(=N)N1 [Example 70, (6S)-6-{2-Chloro-3-[(4-fluoro-pyrazolo[1,5-a]pyridin-6-yl)-amino]phenyl}-2-imino-6-methyl-3-(tetrahydropyran-4-yl)hexahydropyrimidin-4-one]
232 | C[C@@]1(c2cccc(Nc3cnc4ccccc4c3C#N)c2Cl)CC(=O)N(C2CCOCC2)C(=N)N1 [Example 89, 3-{2-Chloro-3-[(4S)-2-imino-4-methyl-6-oxo-1-(tetrahydro-pyran-4-yl)hexahydropyrimidin-4-yl]anilino}quinoline-4-carbonitrile]
386 | C[C@@]1(c2cccc(Nc3cnccc3C#N)c2Cl)CC(=O)N(C2CCOCC2)C(=N)N1 [Example 48, 3-{2-Chloro-3-[(4S)-2-imino-4-methyl-6-oxo-1-(tetrahydro-pyran-4-yl)hexahydropyrimidin-4-yl]anilino}pyridine-4-carbo-nitrile]
97 | C[C@@]1(c2cccc(Nc3nccnc3OC(F)F)c2Cl)CC(=O)N(C2CCOCC2)C(=N)N1 [Example 101, (6S)-6-(2-Chloro-3-{[3-(difluoromethoxy)pyrazin-2-yl]-amino}phenyl)-2-imino-6-methyl-3-(tetrahydropyran-4-yl)hexahydropyrimidin-4-one]
248 | CCc1ccc(Nc2cccc([C@]3(C)CC(=O)N(C4CCOCC4)C(=N)N3)c2Cl)cn1 [Example 111, (6S)-6-{2-Chloro-3-[(6-ethyl-pyridin-3-yl)amino]phenyl}-2-imino-6-methyl-3-(tetrahydro-pyran-4-yl)hexahydropyrimidin-4-one]
